{
  "source": "patent US12084680B2",
  "about": "“Methods for efficient derivation of human motor neurons from diverse spinal regions” (Wisconsin Alumni Research Foundation, priority 2016, dated 2024)",
  "format_in_all_cases": "cell-based, human",
  "key": {"H9 hESCs [1]": {"test_system": "H9 hESCs", "assay": "NKX6.1 induction in neurally differentiating H9 hESCs after 24 h treatment (flow cytometry, RT-PCR, day 3)", "method": "(§1) NKX6.1 is the earliest expressed marker in the motor neuron development cascade in vivo, so we examined its expression in response to Wnt/β-catenin, RA, and SHH signaling during hPSC motor neuron differentiation. H9 hESCs were differentiated in E6 medium for 2 days to initiate neural fate acquisition34 and then treated with combinations of RA, purmorphamine (PM, a small molecule agonist of SHH signaling), and CHIR for 24 h (FIG. 4A). […] Using the H9 ishcat2 line, we observed that CHIR-mediated induction of NKX6.1 was β-catenin-dependent, as the optimal 3 days of shRNA-mediated CTNNB1 knockdown upstream of CHIR treatment was required to maximally reduce NKX6.1 induction to 44±1% (FIG. 4E). The correlation between NKX6.1 knockdown and days of doxycycline treatment was presumably due to the time delay for shRNA synthesis and subsequent gene knockdown in Tet-on systems. […] Exogenously added WNT3A (200 ng/mL) could also induce NKX6.1 expression (60±14%) (FIG. 4G), providing further evidence for the involvement of Wnt/β-catenin signaling in this process. In contrast, simultaneous treatment with CHIR and BMP4 (200 ng/mL), a dorsal patterning factor, reduced the expression of NKX6.1 from 91±1% to 68±2% (FIG. 4H).\n(§2) hESCs were dissociated with accutase (Thermo Fisher Scientific) and reseeded at 1×10^5 cells/cm2 in E8 medium containing 10 μM ROCK inhibitor (Y27632; R&D Systems) on 6-well polystyrene tissue culture plates coated with 100 μg/mL poly-L-ornithine (PLO; Sigma) and 8 μg/well VTN-NC. The timelines and relevant growth factors/small molecules for all differentiation procedures are described in detail in the Results section and its accompanying figures. Cells were differentiated for various amounts of time in E6 medium containing the same insulin concentration as E8 medium as described above with varying combinations of soluble factors (product information and concentration ranges are found in Table 2). For neuromesodermal induction and HOX propagation, cells were sequentially cultured with FGF8b, CHIR99021 (CHIR), GDF11, and dorsomorphin (DM) as previously described. Briefly, to initiate the neuromesodermal state, cells were changed to E6 medium followed by addition of FGF8b (200 ng/ml) 24 h later. To generate cervical neuromesodermal progenitors, cells were washed with PBS, treated with accutase, and re-seeded in E6 medium containing 200 ng/ml FGF8b, 3 μM CHIR, and 10 μM Y27632 on VTN-NC-coated plates at a density of 1.5×10^5 cells/cm^2 for 48 h. To generate thoracic neuromesodermal progenitors, cells were passaged again after 72 h of CHIR treatment and re-seeded at different densities as described in the text.\nThoracic identity was reached after an additional 24 h. Then, to reach the lumbosacral level, cells were given 30 ng/ml GDF11 and 1 μM DM for an additional 48 h. For neuroectoderm induction and generation of OLIG2^+ progenitors, FGF8b was removed at the designated time points and the concentration of CHIR was increased for 6 h as described in the text, followed by a transition to media containing RA, PM, and SHH for a period of 48 h. For differentiation of the OLIG2^+ progenitors to motor neurons, cells were subcultured by en bloc passage using a cell scraper, reseeded at a 1:200 ratio in Matrigel-coated 8-well chamber slides, and differentiated for 14 days in E6 medium containing 1 μM RA, 100 nM PM, and 100 ng/mL SHH, with media exchange every 3 days (10 μM Y27632 was included during the en bloc passaging step and removed after the first media exchange). For differentiation of lumbar cultures, 1 μM DM was included in all steps. For the myoblast co-culture experiments, OLIG2^+ cultures were en bloc passaged, frozen in E6 medium containing 10% DMSO, shipped to a different location, and thawed 1:10 in 6-well plates under the same conditions as described in FIG. 5. To facilitate neuronal maturation prior to myoblast co-culture, 5 μM DAPT (Tocris) was added from days 8-14 post-thaw. […]"}, "H9 hESCs [2]": {"test_system": "H9 hESCs", "assay": "Induction of NKX6.1+/PAX6+/OLIG2+ motor neuron progenitors from cervical neuromesoderm (flow cytometry, immunocytochemistry)", "conditions": "RA 1 μM for 2 days without PM or SHH, day 6", "method": "To begin, we sequentially differentiated H9 hESCs in E6 media for 1 day, and FGF8b (200 ng/mL) for 1 day, and FGF8b and CHIR (3 μM) for 2 days to generate cervical neuromesoderm (FIGS. 5A-5B). Then, we screened the effects of CHIR, PM, and SHH treatment on NKX6.1^+/PAX6^+/OLIG2^+ motor neuron progenitor induction while transitioning to media containing 1 μM RA (FIGS. 5A-5D). Prior to the addition of RA, NKX6.1 was expressed in the cervical neuromesodermal state at day 4 (80±18% NKX6.1^+; data not shown), likely due to the CHIR-induced Wnt/β-catenin signaling (FIGS. 4A-4H). Transitioning the neuromesodermal progenitors to RA-containing media for 2 days induced HOXB4^+/HOXC6^+/HOXC9^−/HOXD10^−/PAX6^+ cervical neuroectoderm in all conditions (FIGS. 5B-5C), as expected. However, without co-activation of SHH signaling by PM or SHH, NKX6.1 expression was quickly lost by day 6 (97±1% PAX6^+, 17±3% NKX6.1^+) (FIG. 5C). […] To bolster this claim, we also analyzed the abundance of full-length GLI3 versus its truncated repressor form by western blot. […] Thus, Wnt/β-catenin signaling is necessary to induce ventral identity, but its continuous activation during OLIG2 induction by SHH signaling is detrimental to motor neuron differentiation, possibly due to activation of the GLI3 repressor.\nNext, we tested conditions where CHIR was removed after transitioning to media containing RA (1 μM), PM (2 μM), and SHH (2 μg/mL) (FIGS. 5A-5C).\nSince NKX6.1 is a pre-requisite to OLIG2 expression, we hypothesized that the Wnt/β-catenin signaling-dependent NKX6.1 expression levels may still be too low for efficient OLIG2^+ motor neuron progenitor induction. Therefore, the concentration of CHIR was boosted to 6 or 9 μM for 6 h immediately prior to transitioning to E6 medium containing RA, PM, and SHH without CHIR (FIG. 5A). The 9 μM CHIR boost followed by a transition to media containing 1 μM RA, 2 μM PM, and 2 μg/mL SHH yielded optimal motor neuron progenitor cultures with highly uniform NKX6.1, OLIG2, and PAX6 expression (96±1%, 85±9%, and 97±2%, respectively) (FIGS. 5C-5D).\nas §2\n(§3) Thoracic identity was reached after an additional 24 h. Then, to reach the lumbosacral level, cells were given 30 ng/ml GDF11 and 1 μM DM for an additional 48 h. For neuroectoderm induction and generation of OLIG2^+ progenitors, FGF8b was removed at the designated time points and the concentration of CHIR was increased for 6 h as described in the text, followed by a transition to media containing RA, PM, and SHH for a period of 48 h. […]"}, "H9 ishcat2 hESC line": {"test_system": "H9 ishcat2 hESC line", "assay": "Doxycycline-inducible shRNA knockdown of β-catenin (CTNNB1) during motor neuron differentiation", "conditions": "doxycycline 2 μg/mL", "method": "In the ventral neural tube, SHH signaling generates OLIG2^+ motor neuron progenitors that subsequently mature into post-mitotic ISL1^+ and/or HB9^+ motor neurons. To probe the role of Wnt/β-catenin signaling during this process in vitro, we utilized the H9 ishcat2 hESC line, which harbors a doxycycline-inducible shRNA against CTNNB1.\nSimilarly, we induced β-catenin knockdown while differentiating the hESCs into motor neurons via E6 neural induction with RA (1 μM), purmorphamine (PM, a small molecule agonist of sonic hedgehog signaling; 100 nM), and neurotrophic factor treatment, as previously described (FIG. 3A).\nas §1\nhESCs were maintained on Matrigel (BD Biosciences) in E8 medium but with 10-fold lower insulin concentration (2 mg/L). Cell lines used in this study were H9 hESCs (passage 25-45) and H9 ishcat2 hESCs (passage 35-45). […]"}, "H9 hESCs [3]": {"test_system": "H9 hESCs", "assay": "Differentiation of cervical OLIG2+ progenitors to post-mitotic motor neurons (immunocytochemistry, flow cytometry)", "conditions": "20 total days of differentiation, SHH, or SAG 2 μM instead of SHH", "from_the_text": "Having optimized the efficiency of OLIG2 induction at diverse spinal cord regions, next region-specific post-mitotic motor neurons were generated. Cervical OLIG2^+ motor neuron progenitors were en bloc passaged and gradually differentiated to ISL1^+ motor neurons over a 14-day period (FIGS. 7A-7B). […] The extensive co-labeling of ISL1^+ cells with SMI32-reactive non-phosphorylated neurofilament heavy chain is indicative of motor neuron identity. Widespread HB9/βIII-tubulin motor neuron expression was also observed throughout the cultures (FIG. 7C). Since spinal motor neurons in vivo are observed to be both ISL1^+, ISL1^+/HB9^+, and HB9^+ but are all SMI32 reactive, flow cytometry of the SMI32^+ cells is proposed to best represent the total percentage of motor neurons in each culture. Moreover, the use of SAG (2 μM), a small molecule Smoothened agonist45, instead of SHH yielded similar efficiencies (72±4% SMI32^+, 63±13% ISL1^+, and 65±15% HB9^+) (FIG. 7C). High efficiencies were also observed for thoracic cultures, whereas lumbar cultures saw a ˜10% decrease in efficiency (FIG. 7C). For all regions, ISL1^+ motor neurons predominantly co-labeled with FOXP1 (70-80% in cervical motor neurons and 40-60% in thoracic and lumbar motor neurons) versus LHX3 markers (20-30% in cervical and thoracic cultures and 15-20% in lumbar cultures) (FIG. 7C). […] These trends agree with the observed distribution of columnar motor neuron phenotype in the cervical, thoracic and lumbar spinal cord in vivo, and it is consistent with our prior observations of motor neuron populations derived using the deterministic HOX patterning protocol.\nas §3"}},
  "data": [
    {"molecule": "c1ccc2c(Oc3nc(Nc4ccc(N5CCOCC5)cc4)c4ncn(C5CCCCC5)c4n3)cccc2c1", "note": "[PM, Purmorphamine]", "values": [
      {"measurement": "NKX6.1 induction within 24 h", "setting": "H9 hESCs [1]; combined RA 1 μM and PM 1 μM, no CHIR", "value": "did not induce NKX6.1"}
    ]},
    {"molecule": "CC1=C2C[C@H]3[C@@H](CC=C4C[C@@H](O)CC[C@@]43C)[C@@H]2CC[C@]12O[C@@H]1C[C@H](C)CN[C@H]1[C@H]2C", "note": "[Cyclopamine]", "values": [
      {"measurement": "NKX6.1 expression (flow cytometry)", "setting": "H9 hESCs [1]; CHIR 6 μM plus Cyclopamine 5 μM, 24 h", "value": "did not diminish NKX6.1 expression"}
    ]},
    {"molecule": "CC1=C(/C=C/C(C)=C/C=C/C(C)=C/C(=O)O)C(C)(C)CCC1", "note": "[RA, Retinoic acid]", "values": [
      {"measurement": "NKX6.1+ cells", "setting": "H9 hESCs [2]", "value": "17±3", "unit": "%"},
      {"measurement": "PAX6+ cells", "setting": "H9 hESCs [2]", "value": "97±1", "unit": "%"}
    ]},
    {"molecule": "C[C@H]1c2cccc(O)c2C(=O)C2=C(O)[C@]3(O)C(=O)C(C(N)=O)=C(O)[C@@H](N(C)C)[C@@H]3[C@@H](O)[C@@H]21", "note": "[Doxycycline]", "values": [
      {"measurement": "reduction of CTNNB1 expression (qPCR relative to RPS18)", "setting": "H9 ishcat2 hESC line; day 3", "value": 87, "unit": "%"},
      {"measurement": "NKX6.1 expression (flow cytometry)", "setting": "H9 ishcat2 hESC line; β-catenin knockdown, day 16", "value": "2±1", "unit": "%"}
    ]},
    {"molecule": "CNC1CCC(N(Cc2cccc(-c3ccncc3)c2)C(=O)c2sc3ccccc3c2Cl)CC1", "note": "(centres unmarked) [SAG]", "values": [
      {"measurement": "HB9+ cells", "setting": "H9 hESCs [3]", "value": "65±15", "unit": "%"},
      {"measurement": "ISL1+ cells", "setting": "H9 hESCs [3]", "value": "63±13", "unit": "%"},
      {"measurement": "SMI32+ cells", "setting": "H9 hESCs [3]", "value": "72±4", "unit": "%"}
    ]},
    {"molecule": "WNT3A: soluble WNT3A, Wnt polypeptide ligand activating Wnt/β-catenin signaling (protein, UniProt P56704 19-352, looked up) Protein Wnt-3a: SYPIWWSLAVGPQYSSLGSQPILCASIPGLVPKQLRFCRNYVEIMPSVAEGIKIGIQECQHQFRGRRWNCTTVHDSLAIFGPVLDKATRESAFVHAIASAGVAFAVTRSCAEGTAAICGCSSRHQGSPGKGWKWGGCSEDIEFGGMVSREFADARENRPDARSAMNRHNNEAGRQAIASHMHLKCKCHGLSGSCEVKTCWWSQPDFRAIGDFLKDKYDSASEMVVEKHRESRGWVETLRPRYTYFKVPTERDLVYYEASPNFCEPNPETGSFGTRDRTCNVSSHGIDGCDLLCCGRGHNARAERRREKCRCVFHWCCYVSCQECTRVYDVHTCK", "values": [
      {"measurement": "NKX6.1 expression (flow cytometry)", "setting": "H9 hESCs [1]; WNT3A 200 ng/mL, day 3", "value": "60±14", "unit": "%"}
    ]},
    {"molecule": "BMP4: a dorsal patterning factor (protein, UniProt P12644 293-408, looked up) Bone morphogenetic protein 4: SPKHHSQRARKKNKNCRRHSLYVDFSDVGWNDWIVAPPGYQAFYCHGDCPFPLADHLNSTNHAIVQTLVNSVNSSIPKACCVPTELSAISMLYLDEYDKVVLKNYQEMVVEGCGCR", "values": [
      {"measurement": "NKX6.1 expression (flow cytometry)", "setting": "H9 hESCs [1]; simultaneous CHIR 4 μM and BMP4 200 ng/mL, day 3", "value": "68±2", "unit": "%"}
    ]}
  ]
}
